# Laboratory results from patent publication US20250049946A1, “SULFONATO RESORCINARENE-COMPLEXED FLUOROQUINOLONES AND METHODS OF USE” (University of Cincinnati, priority 2023, published 2025).
# Tests used:
# [1] = system: S. aureus; assay: in vitro antibacterial activity (MIC assay, 96-well, absorbance at 600 nm); assay type: cell-based, Staphylococcus aureus; conditions: for inhibition of bacterial cells: at higher concentration, S. aureus
# Description: (§1) The in vitro antibacterial activity was tested using a Gram-positive bacterial pathogen, S. aureus, and sensitive and resistant strains of a Gram-negative bacterial pathogen, P. aeruginosa using a high-throughput format in a 96-well microtiter plate, as described previously. Briefly, an inoculum of the test organism was grown to mid-log phase in a Luria broth (LB) medium containing 10 g/L tryptone, 5 g/L yeast extract, and 10 g/L sodium chloride. A 50 μL aliquot of the 100-fold diluted bacterial inoculum was placed in each test well. […]. All experiments were performed in triplicate. For each measurement, three samples in each replicate were analyzed and data were recorded as mean±standard deviation (SD). A paired two-tailed t-test was employed for mean comparison, with significance determined at p<0.05. The dcata analysis was conducted using the Excel program.
# (§2) The antibacterial effectiveness of complexed FQs was assessed in comparison to uncomplexed FQs against Gram-positive Staphylococcus aureus (S. aureus) and Gram-negative Pseudomonas aeruginosa (P. aeruginosa) through a minimum inhibitory concentration (MIC) assay conducted at various concentrations. […] The percentage growth inhibition of bacterial cells treated with complexed and uncomplexed FQs was determined by comparing with the untreated control (FIGS. 13A-13C). The concentrations tested for P. aeruginosa and S. aureus varied based on the MIC of individual antibiotics. […]
# [2] = system: P. aeruginosa; assay: as above; assay type: cell-based, Pseudomonas aeruginosa; conditions: for inhibition of bacterial cells: at higher concentration, P. aeruginosa
# Description: as §1, §2
# [3] = partition coefficient (Ko/w) n-octanol / phosphate buffer; assay type: physicochemical; conditions: octanol / phosphate buffer pH 7.4, 25 °C, 24 h; complexes with 10 times higher host stock
log P (experimental partition coefficient Ko/w) [3],SMILES,"inhibition at 128 µg/mL ([1]; Staphylococcus aureus, 128 μg/mL, 24 h, FIG. 13B, read-out: inhibitory effect on S. aureus cells) [%]",inhibition of bacterial cells [1] [%],"inhibitory effect on P. aeruginosa cells ([2]; […] (so in the source), 24 h, FIG. 13B) [%]",inhibition of bacterial cells [2] [%],"killing of S. aureus ([1]; 12 μg/mL, 24 h, FIG. 13A) [%]","killing of P. aeruginosa bacteria ([2]; 4 μg/mL, 24 h, FIG. 13A) [%]"
–,"CCn1cc(C(=O)O)c(=O)c2cc(F)c(N3CCNCC3)cc21 [NOR, norfloxacin]",97.9 ± 0.38,90,100.43±0.17,90,–,–
−0.41,"C[C@H]1COc2c(N3CCN(C)CC3)c(F)cc3c(=O)c(C(=O)O)cn1c23 [LEVO, levofloxacin]",–,90,–,90,–,–
–,"O=C(O)c1cn(C2CC2)c2cc(N3CCNCC3)c(F)cc2c1=O [CIPRO, ciprofloxacin]",–,90,–,90,98.30±0.26,100.67±0.39
−0.99,"CC1c2cc(c(O)c(CS(=O)(=O)O)c2O)C(C)c2cc(c(O)c(CS(=O)(=O)O)c2O)C(C)c2cc(c(O)c(CS(=O)(=O)O)c2O)C(C)c2cc1c(O)c(CS(=O)(=O)O)c2O (stereo not drawn) [SRsC1, sulfonato-C-methylresorcin[4]arene]",–,–,–,–,–,–
